Source: PMC10582335 (Frontiers in Pharmacology, 2023)
Like-named read-outs stand apart in the source and are kept apart here. Each block holds one compound with its values, some of them ahead of it.

Columns and labels:
[1] = Pharmacokinetics of almonertinib in rats, alone and after multiple doses of rivaroxaban or apixaban; assay type: in vivo, Sprague-Dawley (SD) rats; details: for AUC(0-inf) / AUC(0-t) / Cmax / Tmax / CL/F / MRT last / MRT inf / Vd/F / half-life: male, Sprague-Dawley, rat, plasma, po, 15 mg/kg, mean ± SD, n = 6; for CL/F: read-out: CLz/F (converted); for MRT last: read-out: MRT0-t; for MRT inf: read-out: MRT0-∞; for Vd/F: read-out: Vz/F; for half-life: read-out: t1/2z (converted)
Experimental: Chromatographic separation was performed using an XSelect HSS T3 column (2.1 mm × 100 mm, 2.5 µm, Waters, Milford, MA, United States) at 40°C by gradient elution. The mobile phase consisted of water (A) and acetonitrile (0.1% formic acid, B). […] The flow rate was 0.35 mL min^−1, and the injection volume was 6 µL. The positive ion mode with multiple reaction detection was used. […] The mass spectrometer conditions, including delustering potential (DP) and collision energy (CE) of the compounds, are shown in Table 1. […] Protein precipitation was used to process the plasma samples. 5 μL of mixed IS working solution, 50 µL of the plasma samples, and 150 µL of acetonitrile were vortex-mixed for 1.0 min. […] The supernatant was transferred to a 96-well plate for sample analysis. […] (Beijing, China). […] The study was approved and supervised by the Animal Ethics Committee of Hebei General Hospital (Shijiazhuang, China) (No. 2023024). Adaptive feeding (sufficient food and water) was performed for 1 week before the experiment. […] All rats were fasted for 12 h before starting the experiments while still given water. Sixty healthy rats were randomly divided into ten groups (n = 6). […] Blood samples were centrifuged at 3,500 g for 10 min, and then the supernatant was gathered and stored in a −80°C refrigerator. After, rat intestine, kidney and liver tissues were harvested for molecular analysis on the ninth or fifth day after treatment with the corresponding drugs for each group. The tissues were placed immediately at −80°C. DAS 2.1.1 Software (Mathematical Pharmacology Professional Committee of China, Shanghai, China) was applied to calculate pharmacokinetic parameters using non-compartmental analysis. SPSS 25.0 statistical software (SPSS Inc., Chicago, IL, United States) was applied to statistically analyze the main pharmacokinetic parameters, including AUC, Cmax, Tmax, t1/2, CLz/F, Vz/F, and MRT.

[2] = set-up: method as in Kim et al., 2019; details: with verapamil (inhibitor of P-gp and CYP3A4); ref Kim et al., 2019; cited from earlier work
[3] = almonertinib 15 mg/kg after multiple doses of rivaroxaban (group 9) compared with group 3, rats
[4] = rats, oral almonertinib 15 mg/kg after apixaban 0.5 mg/kg for five days (group 10)
[5] = rats, oral almonertinib 15 mg/kg after rivaroxaban 2 mg/kg for five days (group 9)
[6] = rats, oral almonertinib 15 mg/kg alone (group 3, control solvent of rivaroxaban)
[7] = rats, oral almonertinib 15 mg/kg alone (group 4, control solvent of apixaban)

- all the pharmacokinetic parameters of almonertinib, comparison with almonertinib alone ([1]; almonertinib 15 mg/kg after multiple doses of apixaban 0.5 mg/kg (group 10) compared with group 4, rats): no statistically significant difference
- increase of Cmax of almonertinib ([1]; almonertinib 15 mg/kg after multiple doses of rivaroxaban (group 9) compared with almonertinib alone (group 3), rats): 1.26 fold
- decrease of CLz/F of almonertinib [1, 3]: 81.1%
- increase of AUC0-t of almonertinib [1, 3]: 1.17 fold
- increase of AUC0-∞ of almonertinib [1, 3]: 1.17 fold
- AUC(0-inf) [1, 4]: 293 ± 48.9 ng·h/mL
- AUC(0-t) [1, 4]: 267 ± 51.9 ng·h/mL
- Cmax [1, 4]: 42.1 ± 5.99 ng/mL
- Tmax [1, 4]: 2.5 ± 1.18 h
- CL/F [1, 4]: 877 mL/min/kg
- MRT last [1, 4]: 6.49 ± 0.35 h
- MRT inf [1, 4]: 9.31 ± 2.59 h
- Vd/F [1, 4]: 522 ± 318 L/kg
- half-life [1, 4]: 6.79 ± 4.15 h
- AUC(0-inf) [1, 5]: 299 ± 150 ng·h/mL
- AUC(0-t) [1, 5]: 299 ± 150 ng·h/mL
- Cmax [1, 5]: 51.4 ± 24.9 ng/mL
- Tmax [1, 5]: 3.17 ± 0.41 h
- CL/F [1, 5]: 1040 mL/min/kg
- MRT last [1, 5]: 5.15 ± 0.66 h
- MRT inf [1, 5]: 5.15 ± 0.66 h
- Vd/F [1, 5]: 244 ± 168 L/kg
- half-life [1, 5]: 2.7 ± 0.78 h
- AUC(0-inf) [1, 6]: 138 ± 31.3 ng·h/mL
- AUC(0-t) [1, 6]: 138 ± 31.3 ng·h/mL
- Cmax [1, 6]: 22.8 ± 4.76 ng/mL
- Tmax [1, 6]: 2.17 ± 1.13 h
- CL/F [1, 6]: 1880 mL/min/kg
- MRT last [1, 6]: 5.03 ± 0.73 h
- MRT inf [1, 6]: 5.03 ± 0.74 h
- Vd/F [1, 6]: 331 ± 125 L/kg
- half-life [1, 6]: 2.18 ± 1.05 h
- AUC(0-inf) [1, 7]: 299 ± 46.8 ng·h/mL
- AUC(0-t) [1, 7]: 281 ± 43.3 ng·h/mL
- Cmax [1, 7]: 39.8 ± 8.12 ng/mL
- Tmax [1, 7]: 1.83 ± 1.03 h
- CL/F [1, 7]: 855 mL/min/kg
- MRT last [1, 7]: 6.53 ± 0.97 h
- MRT inf [1, 7]: 8.35 ± 3.38 h
- Vd/F [1, 7]: 383 ± 316 L/kg
- half-life [1, 7]: 5.4 ± 4.96 h
Structure (SMILES): C=CC(=O)Nc1cc(Nc2nccc(-c3cn(C4CC4)c4ccccc34)n2)c(OC)cc1N(C)CCN(C)C [almonertinib, Almonertinib]

Structure (SMILES): O=C(NC[C@H]1CN(c2ccc(N3CCOCC3=O)cc2)C(=O)O1)c1ccc(Cl)s1 [rivaroxaban, Rivaroxaban]
- increase of systemic exposure of rivaroxaban [2]: 2.8 fold
